Test in all cases: KinomeScan kinase panel, single concentration 10 µM
What all share (type): binding

Test [1] addresses T1, KinomeScan kinase panel (Homo sapiens, UniProt P54756).
T1 construct: purchased DiscoveRx (KinomeScan)
The note with it: EPHA5, 10 µM.

In test [2] the target is T2, KinomeScan kinase panel (Homo sapiens, UniProt Q9HBH9).
T2 construct: purchased DiscoveRx (KinomeScan)
As to conditions: MKNK2, 10 µM; read-out: score (%).

In test [3] the target is T3, KinomeScan kinase panel (Homo sapiens, UniProt O60674).
T3 construct: purchased DiscoveRx (KinomeScan)
The note with it: 10 µM.

For test [4], the target named is T4, KinomeScan kinase panel (Homo sapiens, UniProt Q9C098).
T4 construct: purchased DiscoveRx (KinomeScan)
The note with it: DCAMKL3, 10 µM; read-out: score (%).

The target in test [5] is T5, KinomeScan kinase panel (Homo sapiens, UniProt Q9UBE8).
T5 construct: purchased DiscoveRx (KinomeScan)
T5 sequence (Q9UBE8 1-527): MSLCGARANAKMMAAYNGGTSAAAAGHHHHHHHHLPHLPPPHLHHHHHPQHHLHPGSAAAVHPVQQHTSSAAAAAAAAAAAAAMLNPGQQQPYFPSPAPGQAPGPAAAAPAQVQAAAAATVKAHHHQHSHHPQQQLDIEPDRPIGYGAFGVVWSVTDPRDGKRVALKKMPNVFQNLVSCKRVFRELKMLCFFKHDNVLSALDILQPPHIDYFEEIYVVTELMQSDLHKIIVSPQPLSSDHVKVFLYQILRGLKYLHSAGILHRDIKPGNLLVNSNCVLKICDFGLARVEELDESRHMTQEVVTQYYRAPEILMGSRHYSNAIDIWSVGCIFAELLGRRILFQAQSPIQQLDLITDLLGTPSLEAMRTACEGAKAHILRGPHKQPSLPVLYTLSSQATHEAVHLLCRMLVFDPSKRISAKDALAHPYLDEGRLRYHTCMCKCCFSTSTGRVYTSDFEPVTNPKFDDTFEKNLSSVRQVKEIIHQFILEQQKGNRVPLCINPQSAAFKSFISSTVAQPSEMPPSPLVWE
As to conditions: NLK, 10 µM; read-out: score (%).

For test [6], the target named is T6, KinomeScan kinase panel (Homo sapiens, UniProt O43293).
T6 construct: purchased DiscoveRx (KinomeScan)
T6 sequence (O43293 whole entry): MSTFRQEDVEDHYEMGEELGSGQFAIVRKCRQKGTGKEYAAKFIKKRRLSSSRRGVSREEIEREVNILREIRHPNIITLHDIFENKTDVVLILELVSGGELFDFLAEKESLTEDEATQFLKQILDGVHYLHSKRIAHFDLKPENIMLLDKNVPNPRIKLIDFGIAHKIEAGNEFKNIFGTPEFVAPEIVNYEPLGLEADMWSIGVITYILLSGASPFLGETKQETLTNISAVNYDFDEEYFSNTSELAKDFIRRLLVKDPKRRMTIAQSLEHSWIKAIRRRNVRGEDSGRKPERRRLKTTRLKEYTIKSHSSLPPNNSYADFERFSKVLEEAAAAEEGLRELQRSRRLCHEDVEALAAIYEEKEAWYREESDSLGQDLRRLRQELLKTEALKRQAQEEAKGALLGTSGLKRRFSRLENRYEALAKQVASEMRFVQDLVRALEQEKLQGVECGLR
The note with it: DAPK3, 10 µM; read-out: score (%).

In test [7] the target is T7, KinomeScan kinase panel (Homo sapiens, UniProt Q9Y5S2).
T7 construct: purchased DiscoveRx (KinomeScan)
T7 sequence (Q9Y5S2 whole entry): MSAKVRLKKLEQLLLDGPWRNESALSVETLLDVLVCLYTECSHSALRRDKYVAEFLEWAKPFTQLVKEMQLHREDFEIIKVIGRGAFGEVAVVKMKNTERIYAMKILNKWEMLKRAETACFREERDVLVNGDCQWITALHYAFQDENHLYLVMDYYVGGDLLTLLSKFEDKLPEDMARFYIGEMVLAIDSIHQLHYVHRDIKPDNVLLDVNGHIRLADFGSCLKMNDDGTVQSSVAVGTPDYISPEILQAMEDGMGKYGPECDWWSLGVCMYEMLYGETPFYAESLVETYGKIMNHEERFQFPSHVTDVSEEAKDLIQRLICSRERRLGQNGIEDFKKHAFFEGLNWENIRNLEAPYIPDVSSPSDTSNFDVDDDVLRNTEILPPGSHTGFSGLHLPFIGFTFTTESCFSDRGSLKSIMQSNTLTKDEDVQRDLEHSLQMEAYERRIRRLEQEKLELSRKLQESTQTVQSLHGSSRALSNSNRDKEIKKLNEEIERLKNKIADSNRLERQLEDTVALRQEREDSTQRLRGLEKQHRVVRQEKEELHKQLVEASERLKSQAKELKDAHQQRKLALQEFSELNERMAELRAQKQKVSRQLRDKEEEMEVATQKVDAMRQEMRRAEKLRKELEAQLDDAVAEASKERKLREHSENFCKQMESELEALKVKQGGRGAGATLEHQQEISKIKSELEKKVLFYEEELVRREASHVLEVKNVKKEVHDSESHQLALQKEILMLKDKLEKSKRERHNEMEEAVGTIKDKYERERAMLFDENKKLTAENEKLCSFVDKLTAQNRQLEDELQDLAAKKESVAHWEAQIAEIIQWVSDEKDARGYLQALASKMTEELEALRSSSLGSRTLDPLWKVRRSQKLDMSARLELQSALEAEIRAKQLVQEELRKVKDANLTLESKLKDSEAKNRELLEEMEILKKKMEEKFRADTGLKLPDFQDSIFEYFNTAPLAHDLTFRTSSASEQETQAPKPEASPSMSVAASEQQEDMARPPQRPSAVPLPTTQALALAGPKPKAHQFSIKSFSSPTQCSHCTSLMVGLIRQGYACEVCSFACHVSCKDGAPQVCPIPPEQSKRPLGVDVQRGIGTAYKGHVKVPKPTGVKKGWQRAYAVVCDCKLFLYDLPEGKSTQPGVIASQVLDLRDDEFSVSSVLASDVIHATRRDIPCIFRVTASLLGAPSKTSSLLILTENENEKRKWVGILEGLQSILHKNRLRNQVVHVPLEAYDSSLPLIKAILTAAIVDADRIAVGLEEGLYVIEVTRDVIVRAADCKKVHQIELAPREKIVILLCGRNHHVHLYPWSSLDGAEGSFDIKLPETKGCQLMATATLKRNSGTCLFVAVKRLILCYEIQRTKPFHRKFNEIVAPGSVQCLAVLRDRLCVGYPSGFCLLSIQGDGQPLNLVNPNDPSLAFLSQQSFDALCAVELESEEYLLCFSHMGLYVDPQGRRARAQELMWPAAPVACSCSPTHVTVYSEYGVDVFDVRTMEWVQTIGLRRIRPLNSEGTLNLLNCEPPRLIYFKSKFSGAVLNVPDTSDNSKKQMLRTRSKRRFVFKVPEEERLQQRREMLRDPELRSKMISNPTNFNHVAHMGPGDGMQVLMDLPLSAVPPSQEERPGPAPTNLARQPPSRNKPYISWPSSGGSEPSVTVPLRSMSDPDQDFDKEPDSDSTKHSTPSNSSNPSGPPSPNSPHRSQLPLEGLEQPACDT
As to conditions: MRCKB, 10 µM; read-out: score (%).

In test [8] the target is T8, KinomeScan kinase panel (Homo sapiens, UniProt Q16620).
T8 construct: purchased DiscoveRx (KinomeScan)
T8 sequence (Q16620 32-822): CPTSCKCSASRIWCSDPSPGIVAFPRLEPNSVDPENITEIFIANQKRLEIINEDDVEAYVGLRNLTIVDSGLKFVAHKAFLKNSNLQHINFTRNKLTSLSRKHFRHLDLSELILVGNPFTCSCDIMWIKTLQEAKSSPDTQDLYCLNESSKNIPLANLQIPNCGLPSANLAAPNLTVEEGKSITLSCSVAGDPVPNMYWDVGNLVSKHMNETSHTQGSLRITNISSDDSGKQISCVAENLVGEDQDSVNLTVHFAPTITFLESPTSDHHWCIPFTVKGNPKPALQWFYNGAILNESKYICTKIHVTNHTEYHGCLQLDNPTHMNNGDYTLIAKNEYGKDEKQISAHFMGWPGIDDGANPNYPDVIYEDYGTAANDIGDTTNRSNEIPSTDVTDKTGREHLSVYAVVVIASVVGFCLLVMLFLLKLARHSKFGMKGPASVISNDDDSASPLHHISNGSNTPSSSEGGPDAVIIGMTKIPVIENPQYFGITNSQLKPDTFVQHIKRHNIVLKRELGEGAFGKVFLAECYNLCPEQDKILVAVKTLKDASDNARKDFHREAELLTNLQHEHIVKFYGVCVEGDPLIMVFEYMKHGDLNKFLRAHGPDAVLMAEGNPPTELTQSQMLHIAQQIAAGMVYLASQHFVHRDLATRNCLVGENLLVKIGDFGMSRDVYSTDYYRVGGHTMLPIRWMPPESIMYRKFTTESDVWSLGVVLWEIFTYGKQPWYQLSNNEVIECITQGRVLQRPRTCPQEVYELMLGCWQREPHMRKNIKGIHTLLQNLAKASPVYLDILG
As to conditions: 10 µM, read-out: score (%).

Test [9] addresses T9, KinomeScan kinase panel (Homo sapiens, UniProt P10721, V559D/V654A).
T9 construct: purchased DiscoveRx (KinomeScan)
As to conditions: KIT(V559D.V654A), 10 µM; read-out: score (%).

The target in test [10] is T10, KinomeScan kinase panel (Homo sapiens, UniProt O94768).
T10 construct: purchased DiscoveRx (KinomeScan)
T10 sequence (O94768 1-372): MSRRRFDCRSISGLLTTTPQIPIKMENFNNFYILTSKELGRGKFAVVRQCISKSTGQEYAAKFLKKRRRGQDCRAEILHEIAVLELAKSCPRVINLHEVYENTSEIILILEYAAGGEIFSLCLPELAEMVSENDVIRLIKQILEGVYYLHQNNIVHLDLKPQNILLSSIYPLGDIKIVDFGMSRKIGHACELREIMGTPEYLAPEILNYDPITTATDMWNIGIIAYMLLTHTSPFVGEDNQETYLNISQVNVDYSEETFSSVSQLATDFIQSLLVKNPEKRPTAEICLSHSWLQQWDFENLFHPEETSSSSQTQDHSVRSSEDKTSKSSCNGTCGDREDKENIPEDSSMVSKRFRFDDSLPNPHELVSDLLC
As to conditions: DRAK2, 10 µM; read-out: score (%).

Test [11] deals with T11, KinomeScan kinase panel (Homo sapiens, UniProt Q9HAZ1).
T11 construct: purchased DiscoveRx (KinomeScan)
T11 sequence (Q9HAZ1 whole entry): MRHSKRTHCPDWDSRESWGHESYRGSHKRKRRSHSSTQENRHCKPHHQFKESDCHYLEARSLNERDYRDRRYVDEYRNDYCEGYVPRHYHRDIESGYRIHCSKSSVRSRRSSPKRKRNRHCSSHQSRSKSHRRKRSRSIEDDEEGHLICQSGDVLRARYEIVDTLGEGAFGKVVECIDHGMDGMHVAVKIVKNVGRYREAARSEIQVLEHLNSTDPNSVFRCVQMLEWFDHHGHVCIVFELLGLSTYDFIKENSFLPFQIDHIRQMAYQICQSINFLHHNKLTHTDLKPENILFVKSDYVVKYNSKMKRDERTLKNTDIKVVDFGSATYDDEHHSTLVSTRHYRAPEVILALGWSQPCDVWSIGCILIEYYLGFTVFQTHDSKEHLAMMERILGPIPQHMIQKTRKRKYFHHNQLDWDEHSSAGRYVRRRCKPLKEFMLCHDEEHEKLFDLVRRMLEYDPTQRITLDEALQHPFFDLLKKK
As to conditions: CLK4, 10 µM; read-out: score (%).

The target in test [12] is T12, KinomeScan kinase panel (Homo sapiens, UniProt O15530).
T12 construct: purchased DiscoveRx (KinomeScan)
T12 sequence (O15530 1-556): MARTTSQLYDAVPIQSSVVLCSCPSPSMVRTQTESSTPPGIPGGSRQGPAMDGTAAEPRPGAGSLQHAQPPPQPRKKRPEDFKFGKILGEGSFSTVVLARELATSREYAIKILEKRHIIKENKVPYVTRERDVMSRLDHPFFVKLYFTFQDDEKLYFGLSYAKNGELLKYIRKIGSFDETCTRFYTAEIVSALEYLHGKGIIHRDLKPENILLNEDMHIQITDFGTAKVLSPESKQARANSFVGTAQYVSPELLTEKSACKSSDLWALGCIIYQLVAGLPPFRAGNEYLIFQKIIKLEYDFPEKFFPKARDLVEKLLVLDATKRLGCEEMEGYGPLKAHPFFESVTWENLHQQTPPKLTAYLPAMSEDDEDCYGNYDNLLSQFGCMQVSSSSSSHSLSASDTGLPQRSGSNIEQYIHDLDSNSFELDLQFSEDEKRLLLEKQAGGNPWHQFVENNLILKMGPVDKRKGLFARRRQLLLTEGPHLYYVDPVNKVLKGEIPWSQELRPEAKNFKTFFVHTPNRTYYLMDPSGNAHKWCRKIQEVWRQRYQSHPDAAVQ
The note with it: PDPK1, 10 µM; read-out: score (%).

The values below come from article PMC4457528, “Identification of Novel Small Molecule Inhibitors of Oncogenic RET Kinase” (PLoS ONE, 2015).

Where two headings read alike, the source gives them in different places. Where only a bound is given, the exact number is not on record here.

T2 sequence (Q9HBH9 whole entry): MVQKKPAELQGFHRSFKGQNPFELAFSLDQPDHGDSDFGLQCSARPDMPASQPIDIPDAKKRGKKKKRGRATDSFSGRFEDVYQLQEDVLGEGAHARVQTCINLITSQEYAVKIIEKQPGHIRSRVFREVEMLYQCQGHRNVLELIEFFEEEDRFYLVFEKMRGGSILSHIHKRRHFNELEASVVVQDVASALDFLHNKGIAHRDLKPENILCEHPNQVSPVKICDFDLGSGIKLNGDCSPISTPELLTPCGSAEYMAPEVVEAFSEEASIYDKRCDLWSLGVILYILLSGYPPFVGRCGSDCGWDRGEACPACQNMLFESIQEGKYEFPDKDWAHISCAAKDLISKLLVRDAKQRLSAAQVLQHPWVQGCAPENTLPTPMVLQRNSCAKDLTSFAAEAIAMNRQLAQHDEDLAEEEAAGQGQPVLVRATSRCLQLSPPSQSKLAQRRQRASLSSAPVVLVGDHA
T1 sequence (P54756 25-1037): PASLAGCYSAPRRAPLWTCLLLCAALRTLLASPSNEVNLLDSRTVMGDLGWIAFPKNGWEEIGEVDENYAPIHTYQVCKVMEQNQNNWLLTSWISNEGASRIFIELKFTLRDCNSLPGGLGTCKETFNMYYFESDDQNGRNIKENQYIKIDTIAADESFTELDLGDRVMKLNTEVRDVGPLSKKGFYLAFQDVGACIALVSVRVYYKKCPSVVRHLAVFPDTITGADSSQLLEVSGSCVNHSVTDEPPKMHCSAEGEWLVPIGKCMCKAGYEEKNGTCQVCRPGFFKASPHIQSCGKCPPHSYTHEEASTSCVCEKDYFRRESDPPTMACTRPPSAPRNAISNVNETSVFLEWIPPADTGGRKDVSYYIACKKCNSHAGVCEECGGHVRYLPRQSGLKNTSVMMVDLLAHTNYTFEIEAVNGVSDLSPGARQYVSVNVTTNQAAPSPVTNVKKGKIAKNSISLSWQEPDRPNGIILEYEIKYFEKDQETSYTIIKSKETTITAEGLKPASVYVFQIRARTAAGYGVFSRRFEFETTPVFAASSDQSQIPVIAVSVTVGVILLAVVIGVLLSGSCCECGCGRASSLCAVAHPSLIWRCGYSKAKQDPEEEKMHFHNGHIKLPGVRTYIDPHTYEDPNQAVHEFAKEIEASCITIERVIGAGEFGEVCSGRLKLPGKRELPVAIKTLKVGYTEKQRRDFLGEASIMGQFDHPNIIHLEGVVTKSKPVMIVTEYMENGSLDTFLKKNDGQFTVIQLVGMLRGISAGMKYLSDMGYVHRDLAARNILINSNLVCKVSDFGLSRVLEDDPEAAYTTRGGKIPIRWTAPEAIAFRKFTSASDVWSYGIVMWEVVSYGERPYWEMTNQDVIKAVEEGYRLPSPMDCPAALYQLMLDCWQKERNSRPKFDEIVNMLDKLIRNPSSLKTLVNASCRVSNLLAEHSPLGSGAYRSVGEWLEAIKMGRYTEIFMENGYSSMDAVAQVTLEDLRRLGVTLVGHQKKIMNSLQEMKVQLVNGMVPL

`CCN1CCN(Cc2ccc(NC(=O)c3ccc(C)c(NC(=O)c4cncc(-c5cccs5)c4)c3)cc2C(F)(F)F)CC1` [ALW-II-41-27]: the figures for the “score (%)” value on KinomeScan kinase panel [1] and at KinomeScan kinase panel [3] (JAK2(JH1domain-catalytic)) were 0.25% and 11%, respectively. In addition, the remaining binding at 10 µM on KinomeScan kinase panel [2] is above 30%; at KinomeScan kinase panel [4], above 30%; on KinomeScan kinase panel [5], 7.2%; on KinomeScan kinase panel [6] it was above 30%; at KinomeScan kinase panel [7] it was above 30%; at KinomeScan kinase panel [8] (kinase TRKB), 4%. Moreover, the remaining binding at 10 µM on KinomeScan kinase panel [9] is 5.4%; at KinomeScan kinase panel [10] it was 31%; on KinomeScan kinase panel [11] it was 5.3%; on KinomeScan kinase panel [12] it was above 30%.
As to `CCN1CCN(Cc2ccc(NC(=O)c3ccc(C)c(/C=C/c4cnc5[nH]ccc5c4Cl)c3)cc2C(F)(F)F)CC1` [HG-6-63-01, (E)-3-(2-(4-chloro-1H-pyrrolo[2,3-b]pyridin-5-yl)vinyl)-N-(4-((4-ethylpiperazin-1-yl)methyl)-3-(trifluoromethyl)phenyl)-4-methylbenzamide], the “score (%)” value at KinomeScan kinase panel [1] came to 3.3%; on KinomeScan kinase panel [3] (JAK2(Kin.Dom.2)) it was 12%. Moreover, the remaining binding at 10 µM on KinomeScan kinase panel [2] is 0.75%; at KinomeScan kinase panel [4], 2.5%; at KinomeScan kinase panel [5] it was 6.8%; at KinomeScan kinase panel [6] it was above 30%; at KinomeScan kinase panel [7], 30%; at KinomeScan kinase panel [8] (TRKB), 1.6%. The remaining binding at 10 µM at KinomeScan kinase panel [9] is 0.9%; on KinomeScan kinase panel [10], 1.6%; on KinomeScan kinase panel [11], above 30%; at KinomeScan kinase panel [12] it was above 30%.
As for `CCN1CCN(Cc2ccc(NC(=O)c3ccc(C)c(C#Cc4cccnc4)c3)cc2C(F)(F)F)CC1` [XMD15-44], the “score (%)” value is reported as 1.2% on KinomeScan kinase panel [1] and 3% at KinomeScan kinase panel [3] (JAK2(JH1domain-catalytic)). Moreover, the remaining binding at 10 µM is 0% at KinomeScan kinase panel [2]; above 30% at KinomeScan kinase panel [4]; 8.2% on KinomeScan kinase panel [5]; above 30% on KinomeScan kinase panel [6]; above 30% on KinomeScan kinase panel [7]; 1.6% at KinomeScan kinase panel [8] (kinase TRKB). Moreover, the remaining binding at 10 µM was 4.2% at KinomeScan kinase panel [9], above 30% at KinomeScan kinase panel [10], 15% on KinomeScan kinase panel [11] and 84% on KinomeScan kinase panel [12].
